Values quoted from earlier work in patent publication US9272036B2, “Carbon dioxide, saline and additional active nasal delivery methods and treatments” (CLOVER HILL HEALTHCARE, INC., priority 2012, dated 2016).

System: subjects with SAR

Compound: O=C=O [CO(2), carbon dioxide]
- histamine levels in ipsilateral nasal secretions (after pretreatment with CO(2), increased significantly with sham treatment): did not increase
- sensation reported by subjects during exposure (during 20-second intranasal exposure): transient burning sensation
- ipsilateral secretion weights (nasal allergen challenge 30 minutes after 20-second CO(2) exposure, compared with no treatment): numerically reduced
- bilateral runny nose symptoms (nasal allergen challenge 30 minutes after 20-second CO(2) exposure, compared with no treatment, p=0.01): significant reduction
- contralateral secretion weights (reflex secretory response, primary outcome) (nasal allergen challenge 30 minutes after 20-second CO(2) exposure, compared with no treatment, p=0.04): significant reduction
- sneezes (nasal allergen challenge (grass or ragweed) 30 minutes after 20-second CO(2) exposure, compared with no treatment, p=0.05): significant reduction
- acute response to allergen challenge (overall) (treatment with nasal CO(2)): partial reduction
